We go through 4 molecules from BindingDB's records for doi:10.1016/s0960-894x(98)00494-6 (University of Michigan, 1999).

A short description of the test: Compound was evaluated for inhibition of Protease.
Molecule `O=C(N[C@@H](Cc1ccccc1)C(=O)N[C@@H](CCc1ccccc1)C(=O)[C@@H]1CO1)OCc1ccccc1` [{(S)-1-[(S)-1-((S)-Oxiranecarbonyl)-3-phenyl-propylcarbamoyl]-2-phenyl-ethyl}-carbamic acid benzyl ester] came in with a 50% inhibitory concentration (IC50) of 10 nM.

With `C[C@H](NC(=O)[C@H](Cc1ccccc1)NC(=O)OCc1ccccc1)C(=O)[C@@H]1CO1` [[(S)-1-((S)-1-Methyl-2-(S)-oxiranyl-2-oxo-ethylcarbamoyl)-2-phenyl-ethyl]-carbamic acid benzyl ester], the IC50 stood at 80 nM. This IC50 lies about 8-fold higher than the previous one.

Molecule `O=C(N[C@@H](Cc1ccccc1)C(=O)N[C@@H](CCc1ccccc1)C(=O)[C@H]1CO1)OCc1ccccc1` [{(S)-1-[(S)-1-((R)-Oxiranecarbonyl)-3-phenyl-propylcarbamoyl]-2-phenyl-ethyl}-carbamic acid benzyl ester] displayed an IC50 greater than 1000 nM.

`C[C@H](NC(=O)[C@H](Cc1ccccc1)NC(=O)OCc1ccccc1)C(=O)[C@H]1CO1` [[(S)-1-((S)-1-Methyl-2-(R)-oxiranyl-2-oxo-ethylcarbamoyl)-2-phenyl-ethyl]-carbamic acid benzyl ester] registered a concentration for half-maximal inhibition (IC50) of 1000 nM.
